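At the GI50, growth is halved. At the TGI there is no net growth.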
How the values were obtained:
Assay in all cases: growth of human tumour cells (NCI), 384-well format
BT-549 breast = system: BT-549 breast
SK-MEL-5 melanoma = system: SK-MEL-5 melanoma
TK-10 renal = system: TK-10 renal
KM12 colon = system: KM12 colon
SR leukemia = system: SR leukemia
CCRF-CEM leukemia = system: CCRF-CEM leukemia
IGROV1 ovarian = system: IGROV1 ovarian
MCF7 breast = system: MCF7 breast
M14 melanoma = system: M14 melanoma
HS 578T breast = system: HS 578T breast
NCI-H226 lung = system: NCI-H226 lung
T-47D breast = system: T-47D breast
PC-3 prostate = system: PC-3 prostate
DU-145 prostate = system: DU-145 prostate
U251 glioblastoma = system: U251 glioblastoma
K-562 leukemia = system: K-562 leukemia
NCI/ADR-RES ovarian = system: NCI/ADR-RES ovarian
RXF 393 renal = system: RXF 393 renal
MDA-MB-231 breast = system: MDA-MB-231 breast
SK-MEL-28 melanoma = system: SK-MEL-28 melanoma
MALME-3M melanoma = system: MALME-3M melanoma
LOX IMVI melanoma = system: LOX IMVI melanoma
MDA-MB-435 melanoma = system: MDA-MB-435 melanoma
EKVX NSCLC = system: EKVX NSCLC
HCT-15 colon = system: HCT-15 colon
HOP-62 NSCLC = system: HOP-62 NSCLC
HCT-116 colon = system: HCT-116 colon
UO-31 renal = system: UO-31 renal
UACC-257 melanoma = system: UACC-257 melanoma
ACHN renal = system: ACHN renal
OVCAR-3 ovarian = system: OVCAR-3 ovarian
A498 renal = system: A498 renal
RPMI-8226 leukemia = system: RPMI-8226 leukemia
NCI-H460 NSCLC = system: NCI-H460 NSCLC
SNB-75 CNS = system: SNB-75 CNS
SF-268 CNS = system: SF-268 CNS
786-0 renal = system: 786-0 renal
SW-620 colon = system: SW-620 colon
OVCAR-8 ovarian = system: OVCAR-8 ovarian
HL-60(TB) leukemia = system: HL-60(TB) leukemia
COLO 205 colon = system: COLO 205 colon
NCI-H522 lung = system: NCI-H522 lung
SF-295 CNS = system: SF-295 CNS
MDA-MB-468 breast = system: MDA-MB-468 breast
SN12C renal = system: SN12C renal
SF-539 CNS = system: SF-539 CNS
NCI-H23 lung = system: NCI-H23 lung
A549 NSCLC = system: A549 NSCLC
HOP-92 NSCLC = system: HOP-92 NSCLC
NCI-H322M lung = system: NCI-H322M lung
SNB-19 CNS = system: SNB-19 CNS
CAKI-1 renal = system: CAKI-1 renal
HCC-2998 colon = system: HCC-2998 colon
HT29 colon = system: HT29 colon
UACC-62 melanoma = system: UACC-62 melanoma
SK-OV-3 ovarian = system: SK-OV-3 ovarian
OVCAR-4 ovarian = system: OVCAR-4 ovarian
MOLT-4 leukemia = system: MOLT-4 leukemia

Work on `O=c1cc(-c2cccc3c2Sc2ccccc2S3)oc(N2CCOCC2)c1` yielded a GI50 (BT-549 breast) of 7.8 µM, a TGI (BT-549 breast) of 20.5 µM and a GI50 (SK-MEL-5 melanoma) of 10.7 µM. The TGI (SK-MEL-5 melanoma) was 22.7 µM, the GI50 (TK-10 renal) was 12 µM and the TGI (TK-10 renal) was 24.4 µM. For the same compound, the GI50 (KM12 colon) was 5.64 µM, the TGI (KM12 colon) was 17.7 µM and the GI50 (SR leukemia) was 2.53 µM. The TGI (SR leukemia) was 4.95 µM, the GI50 (CCRF-CEM leukemia) was 7.99 µM and the TGI (CCRF-CEM leukemia) was 20.5 µM. It also gave a GI50 (IGROV1 ovarian) of 7.75 µM, a TGI (IGROV1 ovarian) of 20.2 µM and a GI50 (MCF7 breast) of 6.98 µM. The TGI (MCF7 breast) was 19.7 µM, the GI50 (M14 melanoma) was 10.6 µM and the TGI (M14 melanoma) was 22.5 µM. For the same compound, the GI50 (HS 578T breast) was 6.58 µM, the TGI (HS 578T breast) was 18.5 µM and the GI50 (NCI-H226 lung) was 12.7 µM. The TGI (NCI-H226 lung) was 25.3 µM, the GI50 (T-47D breast) was 10.1 µM and the TGI (T-47D breast) was 21.8 µM. It also gave a GI50 (PC-3 prostate) of 6.39 µM, a TGI (PC-3 prostate) of 19.3 µM and a GI50 (DU-145 prostate) of 12.9 µM. The TGI (DU-145 prostate) was 25.7 µM, the GI50 (U251 glioblastoma) was 12.7 µM and the TGI (U251 glioblastoma) was 25.5 µM. It also gave a GI50 (K-562 leukemia) of 5.04 µM, a TGI (K-562 leukemia) of 16.3 µM and a GI50 (NCI/ADR-RES ovarian) of 11.1 µM. The TGI (NCI/ADR-RES ovarian) was 23.2 µM, the GI50 (RXF 393 renal) was 4.89 µM and the TGI (RXF 393 renal) was 17.6 µM. The GI50 (MDA-MB-231 breast) was 11.3 µM, the TGI (MDA-MB-231 breast) was 23.5 µM and the GI50 (SK-MEL-28 melanoma) was 10.4 µM. It also gave a TGI (SK-MEL-28 melanoma) of 22.2 µM, a GI50 (MALME-3M melanoma) of 6.31 µM and a TGI (MALME-3M melanoma) of 19.2 µM. It also gave a GI50 (LOX IMVI melanoma) of 12.9 µM, a TGI (LOX IMVI melanoma) of 25.6 µM and a GI50 (MDA-MB-435 melanoma) of 5.13 µM. It also gave a TGI (MDA-MB-435 melanoma) of 16.3 µM, a GI50 (EKVX NSCLC) of 11.1 µM and a TGI (EKVX NSCLC) of 23.2 µM. It also gave a GI50 (HCT-15 colon) of 7.02 µM, a TGI (HCT-15 colon) of 19.8 µM and a GI50 (HOP-62 NSCLC) of 13.6 µM. It also gave a TGI (HOP-62 NSCLC) of 26.6 µM, a GI50 (HCT-116 colon) of 9.36 µM and a TGI (HCT-116 colon) of 21.6 µM. For the same compound, the GI50 (UO-31 renal) was 6.91 µM, the TGI (UO-31 renal) was 20.2 µM and the GI50 (UACC-257 melanoma) was 10.2 µM. For the same compound, the TGI (UACC-257 melanoma) was 21.9 µM, the GI50 (ACHN renal) was 14.8 µM and the TGI (ACHN renal) was 28.1 µM. It also gave a GI50 (OVCAR-3 ovarian) of 12.7 µM, a TGI (OVCAR-3 ovarian) of 25.5 µM and a GI50 (A498 renal) of 4.26 µM. It also gave a TGI (A498 renal) of 15.3 µM, a GI50 (RPMI-8226 leukemia) of 3.35 µM and a TGI (RPMI-8226 leukemia) of 13.9 µM. For the same compound, the GI50 (NCI-H460 NSCLC) was 14.4 µM, the TGI (NCI-H460 NSCLC) was 28 µM and the GI50 (SNB-75 CNS) was 10.7 µM. For the same compound, the TGI (SNB-75 CNS) was 22.7 µM, the GI50 (SF-268 CNS) was 12.1 µM and the TGI (SF-268 CNS) was 24.7 µM. The GI50 ([…]-0 renal) was 10.6 µM, the TGI (786-0 renal) was 22.6 µM and the GI50 (SW-620 colon) was 15.9 µM. It also gave a TGI (SW-620 colon) of 29.6 µM, a GI50 (OVCAR-8 ovarian) of 12.8 µM and a TGI (OVCAR-8 ovarian) of 25.7 µM. For the same compound, the GI50 (HL-60(TB) leukemia) was 1.52 µM, the TGI (HL-60(TB) leukemia) was 3.17 µM and the GI50 (COLO 205 colon) was 15.4 µM. For the same compound, the TGI (COLO 205 colon) was 28.9 µM, the GI50 (NCI-H522 lung) was 12.4 µM and the TGI (NCI-H522 lung) was 24.9 µM. The GI50 (SF-295 CNS) was 13.2 µM, the TGI (SF-295 CNS) was 26.1 µM and the GI50 (MDA-MB-468 breast) was 8.61 µM. The TGI (MDA-MB-468 breast) was 20.7 µM, the GI50 (SN12C renal) was 11.5 µM and the TGI (SN12C renal) was 23.8 µM. The GI50 (SF-539 CNS) was 12.2 µM, the TGI (SF-539 CNS) was 24.9 µM and the GI50 (NCI-H23 lung) was 16 µM. It also gave a TGI (NCI-H23 lung) of 29.6 µM, a GI50 (A549 NSCLC) of 11.4 µM and a TGI (A549 NSCLC) of 23.8 µM. It also gave a GI50 (HOP-92 NSCLC) of 10.1 µM, a TGI (HOP-92 NSCLC) of 21.7 µM and a GI50 (NCI-H322M lung) of 11 µM. It also gave a TGI (NCI-H322M lung) of 23.1 µM, a GI50 (SNB-19 CNS) of 13.9 µM and a TGI (SNB-19 CNS) of 26.9 µM. For the same compound, the GI50 (CAKI-1 renal) was 5.15 µM, the TGI (CAKI-1 renal) was 18.4 µM and the GI50 (HCC-2998 colon) was 2.98 µM. For the same compound, the TGI (HCC-2998 colon) was 11.6 µM, the GI50 (HT29 colon) was 12 µM and the TGI (HT29 colon) was 24.7 µM. For the same compound, the GI50 (UACC-62 melanoma) was 10.4 µM, the TGI (UACC-62 melanoma) was 22.3 µM and the GI50 (SK-OV-3 ovarian) was 15.2 µM. The TGI (SK-OV-3 ovarian) was 28.7 µM, the GI50 (OVCAR-4 ovarian) was 12.9 µM and the TGI (OVCAR-4 ovarian) was 25.6 µM. The GI50 (MOLT-4 leukemia) was 7.2 µM and the TGI (MOLT-4 leukemia) was 19.9 µM.

For `O=C(O)C1(C(=O)O)CCC1.[NH2-].[NH2-].[Pt+2]`, the GI50 (BT-549 breast) was < 0.01 µM, the TGI (BT-549 breast) was < 0.01 µM and the GI50 (HCT-116 colon) was < 0.01 µM. For the same compound, the TGI (HCT-116 colon) was < 0.01 µM, the GI50 (COLO 205 colon) was < 0.01 µM and the TGI (COLO 205 colon) was < 0.01 µM. For the same compound, the GI50 (A549 NSCLC) was < 0.01 µM, the TGI (A549 NSCLC) was < 0.01 µM and the GI50 (CAKI-1 renal) was < 0.01 µM. The TGI (CAKI-1 renal) was < 0.01 µM.

Reference: PubChem BioAssay (NCI)
